Converted amounts (≈) assume the structure as drawn. One block for each compound: values may come before it.
Key:
[1] = system: Plasmodium falciparum; test: microbe, parasite or virus in culture
Description: Antimalarial activity against Plasmodium falciparum

[2] = system: Plasmodium falciparum; test: Antimalarial activity against CQ-resistant Plasmodium falciparum W2; type: functional, organism-based
[3] = system: Plasmodium falciparum; test: Antimalarial activity against CQ-sensitive Plasmodium falciparum D6; type: functional, organism-based
[4] = system: HepG2; test: Cytotoxicity against human HepG2 cells; type: functional, cell-based; settings: Homo sapiens, HepG2
[5] = system: HCT-116; test: Cytotoxicity against human HCT-116 cells; type: functional, cell-based
[6] = target: Lysine-specific demethylase 6B (Homo sapiens) (UniProt O15054); test: Inhibition of JMJD3 (unknown origin) at 25 uM relative to control
Lysine-specific demethylase 6B (Homo sapiens), sequence (O15054 whole entry): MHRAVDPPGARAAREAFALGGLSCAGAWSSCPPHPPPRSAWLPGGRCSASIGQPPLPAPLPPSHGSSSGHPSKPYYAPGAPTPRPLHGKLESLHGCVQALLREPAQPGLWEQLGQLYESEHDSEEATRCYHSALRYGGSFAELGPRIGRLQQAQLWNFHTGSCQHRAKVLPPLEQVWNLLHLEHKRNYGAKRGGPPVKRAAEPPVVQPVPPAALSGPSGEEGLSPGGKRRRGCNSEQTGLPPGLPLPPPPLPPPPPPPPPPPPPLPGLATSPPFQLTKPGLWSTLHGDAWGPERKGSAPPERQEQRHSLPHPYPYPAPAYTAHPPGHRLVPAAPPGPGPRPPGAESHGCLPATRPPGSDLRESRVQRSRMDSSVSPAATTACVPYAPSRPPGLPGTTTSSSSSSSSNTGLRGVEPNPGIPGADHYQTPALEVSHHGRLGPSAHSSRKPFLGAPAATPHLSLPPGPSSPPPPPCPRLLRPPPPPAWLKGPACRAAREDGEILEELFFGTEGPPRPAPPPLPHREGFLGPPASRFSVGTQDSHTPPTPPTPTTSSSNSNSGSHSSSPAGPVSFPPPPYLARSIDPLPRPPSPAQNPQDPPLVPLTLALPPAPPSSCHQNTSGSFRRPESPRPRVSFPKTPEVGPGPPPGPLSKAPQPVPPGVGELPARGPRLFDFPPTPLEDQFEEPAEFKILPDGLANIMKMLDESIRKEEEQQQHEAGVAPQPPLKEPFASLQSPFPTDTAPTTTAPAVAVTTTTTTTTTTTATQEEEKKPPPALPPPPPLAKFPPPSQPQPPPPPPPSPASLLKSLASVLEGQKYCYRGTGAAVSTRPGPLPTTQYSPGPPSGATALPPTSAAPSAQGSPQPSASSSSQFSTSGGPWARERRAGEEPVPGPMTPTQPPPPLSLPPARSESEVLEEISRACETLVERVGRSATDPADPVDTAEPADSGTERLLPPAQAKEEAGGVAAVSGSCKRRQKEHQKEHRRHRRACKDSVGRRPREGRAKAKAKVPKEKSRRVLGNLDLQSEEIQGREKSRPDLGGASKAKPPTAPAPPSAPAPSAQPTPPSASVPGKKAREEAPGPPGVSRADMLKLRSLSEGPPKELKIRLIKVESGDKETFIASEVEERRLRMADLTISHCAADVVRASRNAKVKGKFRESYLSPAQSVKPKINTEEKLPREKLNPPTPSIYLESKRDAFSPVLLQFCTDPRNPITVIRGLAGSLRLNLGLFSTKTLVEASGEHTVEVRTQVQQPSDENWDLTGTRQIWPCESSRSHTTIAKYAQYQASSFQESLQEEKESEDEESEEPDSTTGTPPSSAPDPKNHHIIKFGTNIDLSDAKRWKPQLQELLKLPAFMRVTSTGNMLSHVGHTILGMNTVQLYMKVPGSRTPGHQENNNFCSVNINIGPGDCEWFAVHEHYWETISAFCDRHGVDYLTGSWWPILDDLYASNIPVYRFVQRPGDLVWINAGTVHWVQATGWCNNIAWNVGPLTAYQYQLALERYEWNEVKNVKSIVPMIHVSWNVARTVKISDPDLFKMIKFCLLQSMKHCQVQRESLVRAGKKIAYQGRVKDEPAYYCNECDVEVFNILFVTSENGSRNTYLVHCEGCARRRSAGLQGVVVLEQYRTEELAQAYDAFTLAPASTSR

[7] = Binding affinity to human nRNP
[8] = system: Plasmodium falciparum; test: Antimalarial activity against CQ-resistant Plasmodium falciparum K1; type: functional, organism-based
[9] = system: Plasmodium falciparum; test: Antimalarial activity against CQ-sensitive Plasmodium falciparum 3D7; type: functional, organism-based
[10] = target: Hepatocyte growth factor receptor (Homo sapiens, UniProt P08581); test: Inhibition of c-Met (unknown origin)
Hepatocyte growth factor receptor, sequence (P08581 whole entry): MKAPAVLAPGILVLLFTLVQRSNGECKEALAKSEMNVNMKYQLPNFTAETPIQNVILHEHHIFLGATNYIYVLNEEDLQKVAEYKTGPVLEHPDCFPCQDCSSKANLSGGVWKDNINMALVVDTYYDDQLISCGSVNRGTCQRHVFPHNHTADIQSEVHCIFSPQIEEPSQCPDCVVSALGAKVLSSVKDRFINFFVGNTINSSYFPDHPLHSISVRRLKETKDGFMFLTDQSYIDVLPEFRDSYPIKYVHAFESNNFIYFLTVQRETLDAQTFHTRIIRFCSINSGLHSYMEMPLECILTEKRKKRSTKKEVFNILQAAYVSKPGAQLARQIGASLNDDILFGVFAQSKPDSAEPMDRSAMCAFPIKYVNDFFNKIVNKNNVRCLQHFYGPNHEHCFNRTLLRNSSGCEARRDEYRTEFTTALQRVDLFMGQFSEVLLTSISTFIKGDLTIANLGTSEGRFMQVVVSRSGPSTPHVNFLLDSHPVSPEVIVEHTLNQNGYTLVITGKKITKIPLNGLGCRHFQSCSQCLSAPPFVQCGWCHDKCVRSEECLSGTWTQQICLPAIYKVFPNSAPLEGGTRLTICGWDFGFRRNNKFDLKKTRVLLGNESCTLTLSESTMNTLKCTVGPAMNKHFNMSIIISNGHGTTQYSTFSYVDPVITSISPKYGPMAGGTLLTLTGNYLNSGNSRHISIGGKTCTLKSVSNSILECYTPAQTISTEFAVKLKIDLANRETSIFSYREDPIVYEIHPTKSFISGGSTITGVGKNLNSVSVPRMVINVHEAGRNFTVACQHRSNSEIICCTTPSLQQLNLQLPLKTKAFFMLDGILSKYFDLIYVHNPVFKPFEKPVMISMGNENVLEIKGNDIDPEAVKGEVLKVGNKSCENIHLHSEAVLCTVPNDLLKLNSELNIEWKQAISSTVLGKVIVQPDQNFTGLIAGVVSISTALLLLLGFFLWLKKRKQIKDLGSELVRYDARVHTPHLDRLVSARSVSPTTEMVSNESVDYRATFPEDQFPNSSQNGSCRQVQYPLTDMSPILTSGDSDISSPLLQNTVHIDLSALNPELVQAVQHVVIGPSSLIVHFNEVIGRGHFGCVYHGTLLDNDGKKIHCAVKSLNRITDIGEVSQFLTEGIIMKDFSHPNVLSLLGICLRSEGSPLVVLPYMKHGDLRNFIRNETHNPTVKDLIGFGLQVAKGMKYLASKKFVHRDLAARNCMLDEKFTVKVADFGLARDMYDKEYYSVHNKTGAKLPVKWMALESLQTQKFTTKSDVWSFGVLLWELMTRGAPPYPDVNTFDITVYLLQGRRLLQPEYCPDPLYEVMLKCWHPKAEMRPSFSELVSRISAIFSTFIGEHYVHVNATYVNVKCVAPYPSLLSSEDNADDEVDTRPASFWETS

[11] = system: MCF7; test: Antiproliferative activity against human MCF7 cells; type: functional, cell-based; settings: Homo sapiens, MCF7
[12] = system: HeLa; test: Antiproliferative activity against human HeLa cells; type: functional, cell-based
[13] = system: Plasmodium falciparum; test: microbe, parasite or virus in culture; settings: NF54
Description: Antimalarial activity against CQ-sensitive Plasmodium falciparum NF54

[14] = target: Cathepsin B (Homo sapiens) (UniProt P07858); test: Inhibition of human cathepsin B exopeptidase activity at 50 uM relative to control

IC50 [1]: 0.02 µg/mL (≈ 0.0549 µM)
SMILES: Cc1ccc(NC(=S)NNC(=O)c2c(C)nc3ccccc3c2C)cc1

inhibition [6]: 0%
SMILES: COc1cc(-c2cnc3c(C(=O)O)ccc(C(=O)O)c3c2)ccc1F

Kd [7]: 4600 nM
SMILES: O=C(/C=C/c1cc(N2CCOCC2)c2cc([N+](=O)[O-])ccc2n1)c1ccc(O)cc1

Kd [7]: 4600 nM
SMILES: COc1ccc(C(=O)/C=C/c2cc(N3CCOCC3)c3cc(F)ccc3n2)cc1

IC50 [1]: < 0.3 µg/mL
SMILES: O=C(NNC(=S)Nc1cccc(Cl)c1)c1cc(-c2ccccc2Cl)nc2ccccc12

inhibition [6]: 0%
SMILES: COc1cc(-c2cnc3c(C(=O)O)ccc(C(=O)O)c3c2)c(OC)nn1

IC50 [1]: < 0.3 µg/mL
SMILES: O=C(NNC(=S)Nc1ccc([N+](=O)[O-])cc1)c1cc(-c2ccccc2Cl)nc2ccccc12

IC50 [11]: 1380 nM
SMILES: Cc1cc(S(=O)(=O)c2ccccc2[N+](=O)[O-])c2ccccc2n1

IC50 [12]: 40 nM
SMILES: N#CN=C(NCCCCCCOc1ccc(Cl)cc1)Nc1ccncc1 [CHS-828]

inhibition [14]: 19.4%
SMILES: O=C(NCCO)c1cc([N+](=O)[O-])c2cccnc2c1O

IC50 [1]: 0.092 µg/mL (≈ 0.223 µM)
SMILES: OCc1cc(-c2cn(-c3ccc(Cl)cc3)nc2-c2ccccc2)nc2ccccc12

inhibition [14]: 19.4%
SMILES: O=C(NCc1ccc(F)cc1)c1cc([N+](=O)[O-])c2cccnc2c1O

inhibition [14]: 19.4%
SMILES: O=C(NC1CCCCC1)c1cc([N+](=O)[O-])c2cccnc2c1O

inhibition [6]: 0%
SMILES: O=C(O)c1ccc(-c2cnc3c(C(=O)O)ccc(C(=O)O)c3c2)s1

IC50 [1]: 0.036 µg/mL (≈ 0.0807 µM)
SMILES: OCc1cc(-c2cn(-c3ccc(Cl)cc3Cl)nc2-c2ccccc2)nc2ccccc12

inhibition [14]: 19.4%
SMILES: COCCCNC(=O)c1cc([N+](=O)[O-])c2cccnc2c1O

Kd [7]: 4600 nM
SMILES: O=C(/C=C/c1cc(N2CCOCC2)c2ccccc2n1)c1ccc(O)cc1

Continued, compound first:

SMILES: CCCCCCOc1c(OC)cc(NC(C)CCCN)c2nc(C(C)(C)C)ccc12 (stereo unspecified)
IC50 [2]: 0.022 µg/mL | IC50 [3]: 0.02 µg/mL

SMILES: CCN(CC)c1ccc2c(c1)C(=O)N(CCC(=O)NCCNc1ccnc3cc(Cl)ccc13)C2=O
IC50 [2]: 97 nM

SMILES: CN(C)c1ccc(/C=C/c2cc(-c3nnc(N)s3)c3cc(Br)ccc3n2)cc1
IC50 [4]: 7.7 µg/mL | IC50 [5]: 7.7 µg/mL (≈ 17 µM)

SMILES: CCCCCCCCOc1c(OC)cc(NC(C)CCCN)c2nc(C(C)(C)C)ccc12 (stereo unspecified)
IC50 [2]: 0.022 µg/mL | IC50 [3]: 0.02 µg/mL

SMILES: CN(C)c1ccc(/C=C/c2cc(C(=O)O)c3cc(Br)ccc3n2)cc1
IC50 [4]: 7.7 µg/mL | IC50 [5]: 7.7 µg/mL (≈ 19.4 µM)

SMILES: Cc1ccsc1-c1cncn1CCNc1ccnc2cc(Cl)ccc12
IC50 [8]: 290 nM | IC50 [9]: 79 nM

SMILES: COc1cc2nccc(Oc3ccc(NC(=O)C4(C(=O)Nc5ccc(F)cc5)CC4)cc3)c2cc1OC(=O)c1ccc([N+](=O)[O-])cc1
IC50 [10]: 19 nM

SMILES: Cc1ccc(S(=O)(=O)Oc2ccc(Cl)c3cccnc23)cc1
IC50 [11]: 1380 nM

SMILES: COc1cc2nccc(Oc3ccc(NC(=O)C4(C(=O)Nc5c(F)cc(F)cc5F)CC4)cc3)c2cc1Oc1ccc(N)cn1
IC50 [10]: 19 nM

SMILES: Cc1c(Cl)ccc2cc(/C=C/C(=O)c3csc(Cl)c3)c(Cl)nc12
IC50 [2]: < 50 nM | IC50 [3]: < 50 nM

SMILES: C#Cc1ccc(-c2cn(CCNc3ccnc4cc(Cl)ccc34)nn2)cc1
IC50 [8]: 160 nM | IC50 [13]: 140 nM

SMILES: COc1ccc(C(=O)/C=C/c2cc(N3CCOCC3)c3cc(OC)ccc3n2)cc1
Kd [7]: 4600 nM

SMILES: CN(C)C/C=C/C(=O)Nc1cc2c(Nc3ccc(F)c(Cl)c3)ncnc2cc1O[C@H]1CCOC1 [AFATINIB]
IC50 [4]: 5.3 µg/mL | IC50 [5]: 5.3 µg/mL (≈ 10.9 µM)

SMILES: Cc1ccc2nc(/C=C/c3ccc(N(C)C)cc3)cc(C(=O)O)c2c1
IC50 [4]: 7.7 µg/mL | IC50 [5]: 7.7 µg/mL (≈ 23.2 µM)

SMILES: N=C(N=C(N)N)SCCCCNc1ccnc2cc(Cl)ccc12
IC50 [2]: 430 nM | IC50 [3]: 610 nM

SMILES: O=C1c2ccc(N3CCN(CCO)CC3)cc2C(=O)N1CCCCCCNc1ccnc2cc(Cl)ccc12
IC50 [2]: 6 nM

SMILES: C=C[C@H]1CN2CC[C@H]1C[C@H]2[C@H](O)c1ccnc2ccc(OC)cc12 [QUININE]
IC50 [13]: 22 nM | IC50 [1]: 0.26 µg/mL (≈ 0.801 µM)

SMILES: Cc1cccc2cc(CNC3CCOC(C)(C)C3)c(N3CCCC3)nc12 (stereo unspecified)
IC50 [8]: 173 nM | IC50 [13]: 22 nM

SMILES: O=C(NNC(=S)Nc1ccc(Cl)cc1Cl)c1cc(-c2ccccc2Cl)nc2ccccc12
IC50 [1]: < 0.3 µg/mL

SMILES: O=C1c2ccc(N3CCOCC3)cc2C(=O)N1CCCCCCNc1ccnc2cc(Cl)ccc12
IC50 [2]: 6 nM

SMILES: Cc1c(Cl)ccc2cc(/C=C/C(=O)c3cccc(Br)c3)c(Cl)nc12
IC50 [2]: < 50 nM | IC50 [3]: < 50 nM

SMILES: COc1ccc(C(=O)/C=C/c2cc(N3CCOCC3)c3ccccc3n2)cc1
Kd [7]: 4600 nM

SMILES: NS(=O)(=O)c1ccc(-c2cnc3c(C(=O)O)ccc(C(=O)O)c3c2)cc1
inhibition [6]: 0%

SMILES: O=C(NNC(=S)Nc1cc(Cl)cc(Cl)c1)c1cc(-c2ccc(F)cc2F)nc2cc(Cl)c(F)cc12
IC50 [1]: 0.1 µg/mL (≈ 0.18 µM)

SMILES: Cc1c(Cl)ccc2cc(/C=C/C(=O)c3ccccc3Br)c(Cl)nc12
IC50 [2]: < 50 nM | IC50 [3]: < 50 nM

SMILES: Cc1c(Cl)ccc2cc(/C=C/C(=O)c3ccc(Cl)cc3)c(Cl)nc12
IC50 [2]: < 50 nM | IC50 [3]: < 50 nM

SMILES: CN(C)CCNCc1ccc(-c2cc(-c3ccc(CNCCN(C)C)cc3)c3ccccc3n2)cc1
IC50 [2]: 340 nM | IC50 [4]: 3100 nM | IC50 [9]: 32 nM

From ChEMBL document CHEMBL5230155, “Recent contributions of quinolines to antimalarial and anticancer drug discovery research” (Eur J Med Chem, 2021)
